Laboratory results reported in patent publication US20100278932A1, “POLYMER MICELLES CONTAINING SN-38 FOR THE TREATMENT OF CANCER” (Intezyne Technologies, Incorporated, priority 2009, published 2010).
Structures can show the parent of a compound that is named as a salt.

Experiments:
[1] = cited from earlier work
[2] = Pharmacokinetics in cannulated rats; type: in vivo; conditions: 5 mg/kg (SN-38 equivalent mass) fast IV bolus, SN-38 in plasma, IT-141 of Example 40

AUC [2] [hours*μg SN-38/mL] | Compound | solubility in aqueous solutions [1]
 | CCc1c2c(nc3ccc(O)cc13)-c1cc3c(c(=O)n1C2)COC(=O)[C@]3(O)CC [SN-38, 7-ethyl-10-hydroxycamptothecin] | exceedingly insoluble
0.26 | CCc1c2c(nc3ccc(OC(=O)N4CCC(N5CCCCC5)CC4)cc13)-c1cc3c(c(=O)n1C2)COC(=O)[C@]3(O)CC [CPT-11, irinotecan hydrochloride] | 
